The values below come from patent publication US20140315889A1, “HYDROXAMATE DERIVATIVES FOR HDAC INHIBITOR, AND THE PHARMACEUTICAL COMPOSITION COMPRISING THEREOF” (CHONG KUN DANG PHARMACEUTICAL CORP., priority 2011, published 2014).

One experiment deals with T1, human recombinant HDAC6 (Homo sapiens, UniProt Q9UBN7).
T1 construct: purchased Calibiochem Co. (so in the source) 382180
T1 sequence (Q9UBN7 1-1215): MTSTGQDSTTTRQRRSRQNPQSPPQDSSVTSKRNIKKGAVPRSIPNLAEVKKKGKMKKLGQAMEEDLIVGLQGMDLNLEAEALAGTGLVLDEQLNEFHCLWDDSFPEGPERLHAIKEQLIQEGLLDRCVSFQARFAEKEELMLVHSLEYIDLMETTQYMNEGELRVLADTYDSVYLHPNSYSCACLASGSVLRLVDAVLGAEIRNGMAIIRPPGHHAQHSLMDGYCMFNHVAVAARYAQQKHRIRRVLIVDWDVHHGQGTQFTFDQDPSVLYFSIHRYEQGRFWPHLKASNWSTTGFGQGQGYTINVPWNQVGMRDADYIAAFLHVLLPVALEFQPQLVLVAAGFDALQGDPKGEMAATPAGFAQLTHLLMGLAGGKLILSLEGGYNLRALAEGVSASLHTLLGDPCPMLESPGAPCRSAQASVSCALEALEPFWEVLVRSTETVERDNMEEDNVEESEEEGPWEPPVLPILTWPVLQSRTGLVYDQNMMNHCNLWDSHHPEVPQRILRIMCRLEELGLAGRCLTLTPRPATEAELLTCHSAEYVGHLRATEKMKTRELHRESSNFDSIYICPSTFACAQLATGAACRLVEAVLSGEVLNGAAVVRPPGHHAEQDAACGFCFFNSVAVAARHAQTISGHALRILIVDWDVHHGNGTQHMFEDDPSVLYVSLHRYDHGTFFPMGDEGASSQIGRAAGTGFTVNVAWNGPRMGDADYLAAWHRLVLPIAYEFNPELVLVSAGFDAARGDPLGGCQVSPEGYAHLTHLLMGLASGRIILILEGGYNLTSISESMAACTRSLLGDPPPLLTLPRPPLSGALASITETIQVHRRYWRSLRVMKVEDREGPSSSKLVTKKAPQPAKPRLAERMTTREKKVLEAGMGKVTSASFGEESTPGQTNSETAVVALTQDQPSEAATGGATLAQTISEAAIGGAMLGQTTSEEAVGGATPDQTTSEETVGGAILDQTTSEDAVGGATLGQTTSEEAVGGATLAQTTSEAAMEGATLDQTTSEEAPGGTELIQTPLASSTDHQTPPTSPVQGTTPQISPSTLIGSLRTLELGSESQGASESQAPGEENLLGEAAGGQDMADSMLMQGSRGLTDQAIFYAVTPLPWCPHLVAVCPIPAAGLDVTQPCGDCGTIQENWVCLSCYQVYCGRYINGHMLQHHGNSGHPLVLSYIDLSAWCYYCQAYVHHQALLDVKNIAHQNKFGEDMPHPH
In words: HDAC enzyme activity test, HDAC6. Format: biochemical. The following applies: Table 12; for Selectivity for HDAC6, HD1/HD6: ratio HDAC1 IC50 / HDAC6 IC50; for IC50: read-out: Inhibition ability (IC50) HDAC6. The protocol:
(§1) Then, 0.3 μg of enzyme and 10 μM of substrate per well were added, reacted at 30° C. for 60 minutes. Thereto, Fluor de Lys® Developer II (BML-KI176) was added and reacted for 30 minutes. […] From the data, the respective IC50 were calculated by GraphPad Prism 4.0 program.

The next experiment concerns the target T2, Human recombinant HDAC1 (Homo sapiens, UniProt Q13547).
T2 construct: purchased Enzo Life Science Co. (named for the kit; assigned to the enzyme from the BML- catalogue prefix) BML-SE456
The experiment can be described thus: HDAC enzyme activity test, HDAC1. The experiment is classed as biochemical. Conditions: Table 12; read-out: Inhibition ability (IC50) HDAC1. The procedure:
as §1

T2 sequence (Q13547 whole entry): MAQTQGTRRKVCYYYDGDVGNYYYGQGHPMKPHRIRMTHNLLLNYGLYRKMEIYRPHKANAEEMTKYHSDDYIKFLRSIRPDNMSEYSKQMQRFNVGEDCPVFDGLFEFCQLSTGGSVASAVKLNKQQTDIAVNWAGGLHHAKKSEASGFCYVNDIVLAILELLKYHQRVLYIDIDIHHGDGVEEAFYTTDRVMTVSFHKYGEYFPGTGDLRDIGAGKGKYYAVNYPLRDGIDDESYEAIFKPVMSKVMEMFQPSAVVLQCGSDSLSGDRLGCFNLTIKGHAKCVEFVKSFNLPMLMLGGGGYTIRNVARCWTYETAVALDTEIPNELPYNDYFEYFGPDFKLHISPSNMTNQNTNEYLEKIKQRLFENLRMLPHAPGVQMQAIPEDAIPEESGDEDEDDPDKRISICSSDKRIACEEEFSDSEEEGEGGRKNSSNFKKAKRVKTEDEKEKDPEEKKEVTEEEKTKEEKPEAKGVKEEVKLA

One may read the IC50 as the midpoint of a concentration-inhibition curve. For the compound `COCCN1CCN(CC2CCc3c(c4ccccc4n3Cc3ccc(C(=O)NO)cc3)C2=O)CC1` (stereo not drawn) [Compound 114], at human recombinant HDAC6, the “Selectivity for HDAC6, HD1/HD6” value is recorded as 327.1 and the concentration for half-maximal inhibition (IC50) stood at 17.7 nM. Further, the concentration for half-maximal inhibition (IC50) at Human recombinant HDAC1 was found to be 5790 nM.
In the same order, the values of `O=C(NO)c1ccc(Cn2c3c(c4ccccc42)C(=O)C(CN2CC(F)(F)C2)CC3)cc1` (stereo not drawn) [Compound 121, 4-((3-((3,3-difluoroazetidin-1-yl)methyl)-4-oxo-1,2,3,4-tetrahydrocarbazol-9-yl)methyl)-N-hydroxybenzamide] are 437.3, 8.51 nM and 3720 nM.
In the same order, the values of `CC1(C)Cc2c(c3ccccc3n2Cc2ccc(C(=O)NO)cc2)C(=O)C1CN1CCOCC1` (stereo not drawn) [Compound 122, 4-((2,2-dimethyl-3-(morpholinomethyl)-4-oxo-1,2,3,4-tetrahydrocarbazol-9-yl)methyl)-N-hydroxybenzamide] are 153, 41 nM and 6270 nM.
In the same order, the values of `O=C(NO)c1ccc(Cn2c3c(c4ccccc42)C(=O)C(CN2CCC(F)(F)C2)CC3)cc1` (stereo not drawn) [Compound 123, 4-((3-((3,3-difluoropyrrolidin-1-yl)methyl)-4-oxo-1,2,3,4-tetrahydrocarbazol-9-yl)methyl)-N-hydroxybenzamide] are 539.8, 6.61 nM and 3570 nM.
On to `Cc1nccn1CC1C(=O)c2c(n(Cc3ccc(C(=O)NO)cc3)c3ccccc23)CC1(C)C` (stereo not drawn) [Compound 126, 4-((2,2-dimethyl-3-((2-methyl-1H-imidazol-1-yl)methyl)-4-oxo-1,2,3,4-tetrahydrocarbazol-9-yl)methyl)-N-hydroxybenzamide], for which, at human recombinant HDAC6, the “Selectivity for HDAC6, HD1/HD6” value stood at 163.3 and the IC50 worked out at 35.5 nM. Besides, the IC50 on Human recombinant HDAC1 came out at 5800 nM.
In the same order, the values of `O=C(NO)c1ccc(Cn2c3c(c4ccccc42)C(=O)C(CN2CCN(c4ccc(F)cc4)CC2)CC3)cc1` (stereo not drawn) [Compound 127, 4-((3-((4-(4-fluorophenyl)piperazin-1-yl)methyl)-4-oxo-1,2,3,4-tetrahydrocarbazol-9-yl)methyl)-N-hydroxybenzamide] are 622.7, 8.51 nM and 5300 nM.
For `Cc1ccc(N2CCN(CC3CCc4c(c5ccccc5n4Cc4ccc(C(=O)NO)cc4)C3=O)CC2)cc1C` (stereo not drawn) [Compound 128, 4-((3-((4-(3,4-dimethylphenyl)piperazin-1-yl)methyl)-4-oxo-1,2,3,4-tetrahydrocarbazol-9-yl)methyl)-N-hydroxybenzamide], the “Selectivity for HDAC6, HD1/HD6” value at human recombinant HDAC6 was 198.6. In addition, the half-maximal inhibitory concentration (IC50) on human recombinant HDAC6 came out at 41 nM; on Human recombinant HDAC1 it was 8140 nM.
With `CN(C)CC1C(=O)c2c(n(Cc3ccc(C(=O)NO)cc3)c3ccccc23)CC1(C)C` (stereo not drawn) [Compound 129, 4-((3-((dimethylamino)methyl)-2,2-dimethyl-4-oxo-1,2,3,4-tetrahydrocarbazol-9-yl)methyl)-N-hydroxybenzamide], at human recombinant HDAC6, the “Selectivity for HDAC6, HD1/HD6” value is listed as 642.7 and the half-maximal inhibitory concentration (IC50) came out at 6.61 nM. Moreover, the IC50 at Human recombinant HDAC1 was 4250 nM.
In the same order, the values of `CS(=O)(=O)N1CCN(CC2CCc3c(c4ccccc4n3Cc3ccc(C(=O)NO)cc3)C2=O)CC1` (stereo not drawn) [Compound 130, N-hydroxy-4-((3-((4-(methylsulfonyl)piperazin-1-yl)methyl)-4-oxo-1,2,3,4-tetrahydrocarbazol-9-yl)methyl)benzamide] are 564.9, 4.7 nM and 2640 nM.
In the same order, the values of `CC1(C)CCc2c(c3ccccc3n2Cc2ccc(C(=O)NO)cc2)C1=O` [Compound 131, 4-((3,3-dimethyl-4-oxo-1,2,3,4-tetrahydrocarbazol-9-yl)methyl)-N-hydroxybenzamide] are 296.6, 9.1 nM and 2690 nM.
Take `Cc1cn(Cc2ccc(C(=O)NO)cc2)c2c1C(=O)CC(C)(C)C2` [Compound 136, N-hydroxy-4-((3,6,6-trimethyl-4-oxo-4,5,6,7-tetrahydro-1H-indol-1-yl)methyl)benzamide]: at human recombinant HDAC6, the “Selectivity for HDAC6, HD1/HD6” value is recorded as 380.3 and the IC50 was determined as 8.58 nM. Further, the IC50 at Human recombinant HDAC1 turned out to be 3260 nM.
Take `CC(C)(C)OC(=O)N1CCN(CC2CCc3c(c4ccccc4n3Cc3ccc(C(=O)NO)cc3)C2=O)CC1` (stereo not drawn) [Compound 140, tert-butyl 4-((9-(4-(hydroxycarbamoyl)benzyl)-4-oxo-2,3,4,9-tetrahydro-1H-carbazol-3-yl)methyl)piperazine-1-carboxylate]: at human recombinant HDAC6, the “Selectivity for HDAC6, HD1/HD6” value was 325.2 and the 50% inhibitory concentration (IC50) came to 18.1 nM. Further, the IC50 on Human recombinant HDAC1 was found to be 5900 nM.
In the same order, the values of `O=C(NO)c1ccc(Cn2c3c(c4cc(F)ccc42)C(=O)C(CN2CCOCC2)CC3)cc1` (stereo not drawn) [Compound 141, 4-((6-fluoro-3-(morpholinomethyl)-4-oxo-1,2,3,4-tetrahydrocarbazol-9-yl)methyl)-N-hydroxybenzamide] are 850.7, 4.9 nM and 4140 nM.
In the same order, the values of `CC(C)(C)OC(=O)N1CCN(CC2CCc3c(c4cc(F)ccc4n3Cc3ccc(C(=O)NO)cc3)C2=O)CC1` (stereo not drawn) [Compound 144, tert-butyl 4-((6-fluoro-9-(4-(hydroxycarbamoyl)benzyl)-4-oxo-2,3,4,9-tetrahydro-1H-carbazol-3-yl)methyl)piperazin-1-carboxylate] are 310.9, 27.1 nM and 8410 nM.
For `O=C(NO)c1ccc(Cn2c3c(c4cc(F)ccc42)C(=O)C(CN2CC(F)(F)C2)CC3)cc1` (stereo not drawn) [Compound 145, 4-((3-((3,3-difluoroazetidin-1-yl)methyl)-6-fluoro-4-oxo-1,2,3,4-tetrahydrocarbazol-9-yl)methyl)-N-hydroxybenzamide], on human recombinant HDAC6, the “Selectivity for HDAC6, HD1/HD6” value is on record as 925.1 and the 50% inhibitory concentration (IC50) was 7.8 nM. Moreover, the IC50 at Human recombinant HDAC1 came to 7230 nM.
Consider `O=C(NO)c1ccc(Cn2c3c(c4ccccc42)C(=O)C(CN2CCN(C(=O)C4CC4)CC2)CC3)cc1` (stereo not drawn) [Compound 156, 4-((3-((4-(cyclopropancarbonyl)piperazin-1-yl)methyl)-4-oxo-1,2,3,4-tetrahydrocarbazol-9-yl)methyl)-N-hydroxybenzamide], for which, at human recombinant HDAC6, the “Selectivity for HDAC6, HD1/HD6” value is 424.8 and the IC50 was found to be 15.1 nM. Further, the IC50 at Human recombinant HDAC1 is 6400 nM.
As for `O=C(NO)c1ccc(Cn2c3c(c4cc(F)ccc42)C(=O)CCC3)cc1` [Compound 157, 4-((3-fluoro-5-oxo-5,6,7,8-tetrahydrocarbazol-9-yl)methyl)-N-hydroxybenzamide], on human recombinant HDAC6, the “Selectivity for HDAC6, HD1/HD6” value is 326.2 and the IC50 stood at 11.1 nM. Moreover, the IC50 on Human recombinant HDAC1 was determined as 3610 nM.
Taken in the same sequence, the figures for `Cc1nccn1CC1CCc2c(c3cc(F)ccc3n2Cc2ccc(C(=O)NO)cc2)C1=O` (stereo not drawn) [Compound 158, 4-((6-fluoro-3-((2-methyl-1H-imidazol-1-yl)methyl)-4-oxo-1,2,3,4-tetrahydrocarbazol-9-yl)methyl)-N-hydroxybenzamide] were 602.7, 8.52 nM and 5140 nM.
In the same order, the values of `O=C(NO)c1ccc(Cn2c3ccccc3c3c(=O)[nH]cnc32)cc1` [Compound 179, N-hydroxy-4-((4-oxo-3,4-dihydropyrimido[4,5-b]indol-9-yl)methyl)benzamide] are 43.693, 3.52 nM and 154 nM.
As to `CC(C)N1CCN(CC2CCc3c(c4cc(F)ccc4n3Cc3ccc(C(=O)NO)cc3)C2=O)CC1` (stereo not drawn) [Compound 188, 4-((6-fluoro-3-((4-isopropylpiperazin-1-yl)methyl)-4-oxo-1,2,3,4-tetrahydrocarbazol-9-yl)methyl)-N-hydroxybenzamide], on human recombinant HDAC6, the “Selectivity for HDAC6, HD1/HD6” value worked out at 49.9 and the half-inhibitory concentration (IC50) stood at 45.3 nM. Also, on Human recombinant HDAC1, the half-inhibitory concentration (IC50) came out at 2260 nM.
